{"source": "PubChem BioAssay AID1963970", "about": "(Molecular Pharmacology Branch, DTP, NCI, 2024)", "system": "931267-113-T-J1-PDC multicell spheroid viability", "assay": "Anticancer human tumor 931267-113-T-J1-PDC patient-derived colon adenocarcinoma cell line growth inhibition [PI3K]", "settings": "for viability, T/C: stronger effect = lower value", "excerpt": "Combinatorial screen of targeted agents with the PI3K inhibitors inavolisib, alpelisib, duvelisib, and copanlisib in multi-cell type tumor spheroids\nA high-throughput screen of multi-cell type tumor spheroids was designed to identify active combinations of targeted small molecules and PI3K pathway inhibitors. Complex spheroids include a stromal component modeled by human endothelial cells (HUVEC) and fibroblasts modeled by human mesenchymal stem cells (MSCs). The concentration ranges selected for each drug and investigational agent were based upon clinically achievable concentrations if the clinical Cmax of the agent was known.\nCompounds. The drugs and investigational agents: inavolisib (NSC800729), alpelisib (NSC765974), duvelisib (NSC772469), copanlisib (NSC816437), ipatasertib (NSC767898), afuresertib (NSC778305), talazoparib (NSC767125), sapanisertib (NSC764658), selumetinib (NSC741078), tovorafenib (DAY101, NSC766906), vemurafenib (NSC761431), ravoxertinib (NSC781343), sotorasib (NSC818433), MRTX1133 (NSC 836407), abemaciclib (NSC 768073), palbociclib (NSC758247), venetoclax (NSC 766270), SY5609 (NSC837396), enzalutamide (NSC755605), and darolutamide (NSC825331), were obtained from the National Cancer Institute (NCI) Developmental Therapeutics Program Chemical Repository. The FDA-approved anticancer drug set is available from the NCI Developmental Therapeutics Program. […] The stock solutions were prepared in dimethyl sulfoxide (DMSO, Sigma-Aldrich, St. Louis, MO, cat. D2650) at 800-fold the tested concentration and stored at -70 degrees C prior to their use. All drugs and investigational agents were tested over a range starting from a high concentration at or near the clinical Cmax and decreasing in half-log increments. If the clinical Cmax for an agent had not been determined, the highest concentration tested was 10 microM.\nCell Culture. All cells were maintained in an incubator at 37 degrees C and 5% CO2 with 95% humidity. The PDC lines were cultured according to standard operating procedures established by the NCI PDMR (https://pdmr.cancer.gov/sops/default.htm). All PDCs were thawed and cultured in Matrigel-coated flasks prepared with a working solution of 1X Ham's F-12 nutrient mix, without supplementation (Invitrogen, Waltham, MA, cat. 11765054), 100 U/mL penicillin-streptomycin (Invitrogen, cat. 15140122), and 2.5% Matrigel (Corning Inc., Corning, NY, cat. 354248) for the first three passages. The 354836-022-R-J1-PDC, 475296-252-R-J1-PDC, and 997726-040-R-J2-PDC lines were cultured in 6A media, which includes advanced DMEM/F-12 (Thermo Fisher Scientific, cat. 12634028), 10 mM HEPES (Thermo Fisher Scientific, cat. 15630080), 1X GlutaMAX supplement (Thermo Fisher Scientific, cat. 35050061), 0.1 mg/mL primocin (InvivoGen, San Diego, CA, cat. ant-pm-2), 10% defined fetal bovine serum, heat inactivated (HyClone Laboratories Inc., Logan, UT, cat. SH30070.03HI), 50% L-WRN conditioned media (ATCC, cat. CRL-3276), 1.25 mM N-Acetyl-L-cysteine (Sigma-Aldrich, cat. A9165), 10 mM nicotinamide (Sigma-Aldrich, cat. N0636), 1X B-27 supplement (Thermo Fisher Scientific, cat. 17504044), 1X N-2 supplement (Thermo Fisher Scientific, cat. 17502048), and 10 microM Y-27632 dihydrochloride (Tocris Bioscience, Bristol, United Kingdom, cat. 1254). The 624824-186-R-J2-PDC line was cultured in 6C/Colon 1B media, which includes all 6A media components plus 50 ng/mL human EGF recombinant protein (Thermo Fisher Scientific, cat. PHG0311). […]", "key": {"[1]": {"settings": "compound alone, run of 05/08/2023"}, "[2]": {"settings": "compound alone, run of 05/09/2023"}}, "note": "Several values for one entry are separate records, joined by “and”; a condition that tells them apart may be missing. Identical values can stand only once.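 Further: viability read 7 days after compound addition.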", "data": [{"smiles": "CC(=O)c1c(C)c2cnc(Nc3ccc(N4CCNCC4)cn3)nc2n(C2CCCC2)c1=O", "values": [{"measurement": "viability, T/C", "setting": "compound 0.000316 µM", "result": "112% and 99.6% and 105%"}, {"measurement": "viability, T/C", "setting": "compound 0.001 µM", "result": "110% and 101% and 102%"}, {"measurement": "viability, T/C", "setting": "compound 0.00316 µM", "result": "103% and 113% and 106%"}, {"measurement": "viability, T/C", "setting": "compound 0.01 µM", "result": "108% and 111% and 103%"}, {"measurement": "viability, T/C", "setting": "compound 0.0316 µM", "result": "99.5% and 106% and 104%"}, {"measurement": "viability, T/C", "setting": "compound 0.1 µM", "result": "89.5% and 91.3% and 105%"}, {"measurement": "IC50", "setting": "curve of compound", "result": "> 100", "unit": "nM"}]}, {"smiles": "CC(C)NCC(C(=O)N1CCN(c2ncnc3c2C(C)CC3O)CC1)c1ccc(Cl)cc1", "note": "(stereo not given)", "values": [{"measurement": "viability, T/C", "setting": "compound 0.0316 µM", "result": "99.5% [middle of 4 runs]"}, {"measurement": "viability, T/C", "setting": "compound 0.1 µM", "result": "95.4% [middle of 4 runs]"}, {"measurement": "viability, T/C", "setting": "compound 0.316 µM", "result": "98.5% [middle of 4 runs]"}, {"measurement": "viability, T/C", "setting": "compound 1 µM", "result": "99.6% [middle of 4 runs]"}, {"measurement": "viability, T/C", "setting": "compound 3.16 µM", "result": "89.5% [middle of 4 runs]"}, {"measurement": "viability, T/C", "setting": "compound 10 µM", "result": "80.2% [middle of 4 runs]"}, {"measurement": "IC50", "setting": "curve of compound", "result": "> 10000", "unit": "nM"}]}, {"smiles": "CC(C)n1nc(-c2ccc3oc(N)nc3c2)c2c(N)ncnc21", "values": [{"measurement": "viability, T/C", "setting": "compound 0.000316 µM", "result": "101% [middle of 4 runs]"}, {"measurement": "viability, T/C", "setting": "compound 0.001 µM", "result": "88.2% and 95% (2×) and 92.1%"}, {"measurement": "viability, T/C", "setting": "compound 0.00316 µM", "result": "96.8% [middle of 4 runs]"}, {"measurement": "viability, T/C", "setting": "compound 0.01 µM", "result": "96.1% [middle of 4 runs]"}, {"measurement": "viability, T/C", "setting": "compound 0.0316 µM", "result": "81.6% [middle of 4 runs]"}, {"measurement": "viability, T/C", "setting": "compound 0.1 µM", "result": "52.2% [middle of 4 runs]"}, {"measurement": "IC50", "setting": "curve of compound", "result": "84.8 nM and 92.4 nM and > 100 nM"}]}, {"smiles": "CC(Nc1ccc2c(c1)OCCn1cc(N3C(=O)OCC3C(F)F)nc1-2)C(N)=O", "note": "(stereo not given)", "values": [{"measurement": "viability, T/C", "setting": "compound 0.00316 µM", "result": "99.8% [middle of 8 runs]"}, {"measurement": "viability, T/C", "setting": "compound 0.01 µM", "result": "100% [middle of 8 runs]"}, {"measurement": "viability, T/C", "setting": "compound 0.0316 µM", "result": "96.4% [middle of 8 runs]"}, {"measurement": "viability, T/C", "setting": "compound 0.1 µM", "result": "83.7% [middle of 8 runs]"}, {"measurement": "viability, T/C", "setting": "compound 0.316 µM", "result": "86% [middle of 8 runs]"}, {"measurement": "viability, T/C", "setting": "compound 1 µM", "result": "83.1% [middle of 8 runs]"}, {"measurement": "IC50", "setting": "[1]", "result": "> 1000", "unit": "nM"}]}, {"smiles": "CC(Nc1ncnc2nc[nH]c12)c1cc2cccc(Cl)c2c(=O)n1-c1ccccc1", "note": "(stereo not given)", "values": [{"measurement": "viability, T/C", "setting": "compound 0.0316 µM", "result": "102% [middle of 8 runs]"}, {"measurement": "viability, T/C", "setting": "compound 0.1 µM", "result": "99.7% [middle of 8 runs]"}, {"measurement": "viability, T/C", "setting": "compound 0.316 µM", "result": "102% [middle of 8 runs]"}, {"measurement": "viability, T/C", "setting": "compound 1 µM", "result": "100% [middle of 8 runs]"}, {"measurement": "viability, T/C", "setting": "compound 3.16 µM", "result": "99.7% [middle of 8 runs]"}, {"measurement": "viability, T/C", "setting": "compound 10 µM", "result": "96.7% [middle of 8 runs]"}, {"measurement": "IC50", "setting": "[2]", "result": "> 10000", "unit": "nM"}]}, {"smiles": "CCN1CCN(Cc2ccc(Nc3ncc(F)c(-c4cc(F)c5nc(C)n(C(C)C)c5c4)n3)nc2)CC1", "values": [{"measurement": "viability, T/C", "setting": "compound 0.00316 µM", "result": "101% [middle of 4 runs]"}, {"measurement": "viability, T/C", "setting": "compound 0.01 µM", "result": "105% (2×) and 103% and 99.8%"}, {"measurement": "viability, T/C", "setting": "compound 0.0316 µM", "result": "103% [middle of 4 runs]"}, {"measurement": "viability, T/C", "setting": "compound 0.1 µM", "result": "102% (2×) and 100% and 96.4%"}, {"measurement": "viability, T/C", "setting": "compound 0.316 µM", "result": "96.2% [middle of 4 runs]"}, {"measurement": "viability, T/C", "setting": "compound 1 µM", "result": "84.8% [middle of 4 runs]"}, {"measurement": "IC50", "setting": "curve of compound", "result": "> 1000", "unit": "nM"}]}, {"smiles": "COc1c(OCCCN2CCOCC2)ccc2c3n(c(=NC(=O)c4cnc(N)nc4)nc12)CCN3", "values": [{"measurement": "viability, T/C", "setting": "compound 0.00316 µM", "result": "101% [middle of 8 runs]"}, {"measurement": "viability, T/C", "setting": "compound 0.01 µM", "result": "95.7% [middle of 8 runs]"}, {"measurement": "viability, T/C", "setting": "compound 0.0316 µM", "result": "80.6% [middle of 8 runs]"}, {"measurement": "viability, T/C", "setting": "compound 0.1 µM", "result": "67.6% [middle of 8 runs]"}, {"measurement": "viability, T/C", "setting": "compound 0.316 µM", "result": "51% [middle of 8 runs]"}, {"measurement": "viability, T/C", "setting": "compound 1 µM", "result": "39.6% [middle of 8 runs]"}, {"measurement": "IC50", "setting": "[2]", "result": "375 nM [middle of 8 runs]"}]}, {"smiles": "Cc1nc(NC(=O)N2CCCC2C(N)=O)sc1-c1ccnc(C(C)(C)C(F)(F)F)c1", "note": "(stereo not given)", "values": [{"measurement": "viability, T/C", "setting": "compound 0.0316 µM", "result": "99.6% [middle of 7 runs]"}, {"measurement": "viability, T/C", "setting": "compound 0.1 µM", "result": "94.8% [middle of 7 runs]"}, {"measurement": "viability, T/C", "setting": "compound 0.316 µM", "result": "84.8% [middle of 7 runs]"}, {"measurement": "viability, T/C", "setting": "compound 1 µM", "result": "80.8% [middle of 7 runs]"}, {"measurement": "viability, T/C", "setting": "compound 3.16 µM", "result": "74.6% [middle of 7 runs]"}, {"measurement": "viability, T/C", "setting": "compound 10 µM", "result": "63.1% [middle of 7 runs]"}, {"measurement": "IC50", "setting": "[1]", "result": "> 10000", "unit": "nM"}]}, {"smiles": "Cn1cnc2c(F)c(Nc3ccc(Br)cc3Cl)c(C(=O)NOCCO)cc21", "values": [{"measurement": "viability, T/C", "setting": "compound 0.00949 µM", "result": "89.7% [middle of 4 runs]"}, {"measurement": "viability, T/C", "setting": "compound 0.03 µM", "result": "67.5% [middle of 4 runs]"}, {"measurement": "viability, T/C", "setting": "compound 0.0949 µM", "result": "53.3% [middle of 4 runs]"}, {"measurement": "viability, T/C", "setting": "compound 0.3 µM", "result": "35.9% [middle of 4 runs]"}, {"measurement": "viability, T/C", "setting": "compound 0.949 µM", "result": "22.4% [middle of 4 runs]"}, {"measurement": "viability, T/C", "setting": "compound 3 µM", "result": "12.2% (2×) and 12.7% and 13.3%"}, {"measurement": "IC50", "setting": "curve of compound", "result": "118 nM [middle of 4 runs]"}]}, {"smiles": "Cn1ncnc1[C@H]1c2n[nH]c(=O)c3cc(F)cc(c23)N[C@@H]1c1ccc(F)cc1", "values": [{"measurement": "viability, T/C", "setting": "compound 0.000316 µM", "result": "104% [middle of 4 runs]"}, {"measurement": "viability, T/C", "setting": "compound 0.001 µM", "result": "107% [middle of 4 runs]"}, {"measurement": "viability, T/C", "setting": "compound 0.00316 µM", "result": "101% [middle of 4 runs]"}, {"measurement": "viability, T/C", "setting": "compound 0.01 µM", "result": "111% and 106% and 97% (2×)"}, {"measurement": "viability, T/C", "setting": "compound 0.0316 µM", "result": "112% [middle of 4 runs]"}, {"measurement": "viability, T/C", "setting": "compound 0.1 µM", "result": "95.6% [middle of 4 runs]"}, {"measurement": "IC50", "setting": "curve of compound", "result": "> 100", "unit": "nM"}]}]}
